The values that follow come from patent US20250213652A1, “COMPOSITIONS AND THEIR USE IN METHODS FOR TREATING INTESTINAL INFLAMMATION” (REVOLO BIOTHERAPEUTICS LIMITED, priority 2022, published 2025).

The test system of experiment [1] is RAG2−/− mice. In words: CD4+CD45RBhigh T cell adoptive transfer murine model of intestinal inflammation. Format: in vivo. An excerpt:
In the present study, intestinal inflammation is initiated with syngeneic splenic CD4^+CD45RB^high T cell adoptive transfer into T and B cell deficient recipient mice.^37 The CD4^+CD45RB^high T cell population contains mainly naïve T cells primed for activation that are capable of inducing chronic small bowel and colonic inflammation. This animal model allows the modification of key experimental variables, including both innate and adaptive immune cell populations, to answer biologically relevant questions relating to disease pathogenesis. […]
From Day 21 until the end of the experiment on Day 49, animals are monitored daily for clinical signs of colitis to include: bodyweight loss, loose stools and/or diarrhea. On Day 49, animals are culled, the colon dissected out, and colon weight and length measured. […]
From Day 21 until the end of the experiment, animals are monitored daily for clinical signs of colitis to include bodyweight loss, loose stools and/or diarrhea.
(§1) At termination, colon from half the animals in each group are transferred in tissue fixative, then processed for paraffin-embedding in a ‘swiss roll’ format. These samples are sectioned and stained with hematoxylin and eosin (H&E) and up to two sections per animal are scored by a qualified histopathologist according to a semi-quantitative scoring system. […]

Experiment [2] deals with C57-bl/6 mice. In words: Dextran sulphate sodium (DSS)-induced murine model of ulcerative colitis. The conditions noted are these: 5% DSS. Format: in vivo. The procedure: In the present study, the DDS murine model of UC will be used to evaluate the efficacy of BiP analogs such as IRL201805 (SEQ ID NO:1).
Adult C57-bl/6 mice are randomly allocated to experimental groups and allowed to acclimatize for one week. From Day-2, treatments are administered in accordance with the administration schedule below. On Day 0, drinking water is replaced by a 5% dextran sulphate sodium (DSS) in water (excluding group 1 which remains on normal drinking water throughout). Animals are given ad libitum access to the 5% DSS solution. From Day 0 until the end of the experiment on Day 7, animals are monitored daily for clinical signs of colitis to include: bodyweight loss, loose stools and/or diarrhea and presence of occult or gross blood in the stools. […]
From Day 0 until the end of the experiment, animals are monitored daily for clinical signs of colitis to include bodyweight loss, loose stools and/or diarrhea and presence of blood, occult or gross, in the stools.
as §1

The test system of experiment [3] is CD69+/CD39+ regulatory T cells (Tregs). In words: Colon punch biopsies from IBD patients, flow cytometry of CD69+/CD39+ Tregs. Format: cell-based, human. The following applies: 20 μg/mL, 12-14 hours, inflamed colonic tissue compared to non-inflamed tissue from the same patient. The method, then:
FIG. 6A-E provides an outline of the procedure used to assess the effects of human primary immune cells ex vivo within inflamed and non-inflamed colon tissue treated with IRL201805.
(§2) In the present study, punch biopsies (2 mm^2) of inflamed and non-inflamed colon tissues were obtained from each consenting IBD patient with hospital ethical approval, as illustrated in FIG. 6A-E. Tissue biopsies were subsequently incubated for 12-14 hours with or without IRL201805 (20 μg/mL) and assessed for CD69+/CD39+ regulatory T cells (Tregs).

The test system of experiment [4] is p-STAT5. In words: Colon punch biopsies from IBD patients, p-STAT5 by flow cytometry. The experiment is classed as cell-based, human. The conditions noted are these: data not shown. The procedure:
as §2
Background: Flow cytometry measures light scatter and fluorescence of single cells or particles in a stream.

The test system of experiment [5] is CD69. In words: Surface expression of CD69 and CD39 on Tregs from PBMCs, flow cytometry. The experiment is classed as cell-based, human. The following applies: 20 μg/mL, 20-72 h at 37° C., PBMCs from two healthy donors. The method, then:
FIG. 8 depicts the mean fluorescent intensity of surface expression of CD69 and CD39 on Tregs from peripheral blood mononuclear cells (PBMCs) cultured with 20 μg/mL IRL201805 for 20-72 h at 37° C.
In the present study, PBMCs were isolated from two healthy donors. PBMCs were then incubated with IRL201805 (20 μg/mL) for 20-72 h at 37° C. Flow cytometry was used to measure mean fluorescent intensity and assess surface expression of CD69 and CD39 on Tregs from the PBMCs.

Experiment [6] has as its system JAK3. In words: RNAseq gene transcript levels, JAK3. The experiment is classed as cell-based, human. The following applies: 20 μg/mL, 24 hour post treatment. The procedure:
(§3) FIG. 9A-B illustrates the effects of 20 µg/mL IRL201805 on JAK-STAT signaling pathway at the transcript and protein level. FIG. 9A provides the RNAseq analysis of gene transcript levels of key signaling genes involved in CD69 activation. FIG. 9B provides the immunoblot of p-STAT5 levels in cell lysates from untreated and IRL1805 treated PBMCs.
(§4) In the present study, the effects of IRL201805 on JAK-STAT signaling pathway were assessed at the transcript and protein level. PBMCs were isolated from a healthy subject and treated for 24 h with 20 μg/mL IRL201805.
(§5) RNAseq analysis was used to assess gene transcript levels of key signaling genes involved in CD69 activation.

For experiment [7], the system named is SOCS3. Kind of experiment: RNAseq gene transcript levels, SOCS3. Format: cell-based, human. The following applies: 20 μg/mL, 24 hour post treatment. The procedure:
as §3, §4, §5

The test system of experiment [8] is STAT5A. In words: RNAseq gene transcript levels, STAT5A. Format: cell-based, human. The conditions noted are these: monocytes from three healthy individuals. The procedure:
as §3, §4, §5

For experiment [9], the system named is STAT5B. In words: RNAseq gene transcript levels, STAT5B. Format: cell-based, human. The following applies: monocytes from three healthy individuals. The procedure:
as §3
In the present study, the effects of IRL201805 on JAK-STAT signaling pathway were assessed at the transcript and protein level. […]
as §5

Experiment [10] relates to p-STAT5. Kind of experiment: Immunoblot of p-STAT5 in PBMC cell lysates. Format: cell-based, human. The conditions noted are these: 20 μg/mL, 24 hours, compared to untreated PBMCs. The method, then: as §3, §4
Immunoblotting of PBMC cell lysates with recombinant anti-STAT5 (phospho Y694) antibody [E208] (ab32364) (Abcam, ab32364) was used to assess the p-STAT5 levels in from untreated and IRL1805 treated PBMCs.

Experiment [11] relates to PBMCs. In words: p-STAT5 status and FoxP3 in T cell subsets of treated PBMCs (Table 4). Format: cell-based. An excerpt:
In Tregs, CD69 is thought to promote CD39 surface expression, FoxP3 transcription, and STAT5 phosphorylation leading to STAT3 inhibition. The present study assessed the effects of IRL1805 on p-STAT5. […] Treatment of PBMCs with IRL201805 led to changes in p-STAT5 status of CD4/CD8 T cells and increased 3-fold the level of FoxP3 transcription (see Table 4).

Experiment [12] deals with galectin-1 (Gal-1). Kind of experiment: TMT quantitative proteomics of monocyte cell surface, Gal-1. Format: cell-based. The conditions noted are these: human monocytes (n=4), 1 hour. An excerpt:
(§6) FIG. 10B provides a bar graph showing the effects of IRL201805 on CD69 ligands, galectin-1 (Gal-1) and S100A8/A9, as detected by TMT quantitative proteomics.
(§7) The potential ligands, Gal-1 and S100A8/A9, are known to bind to CD69.43 In order to examine the expression of and influence the ability of T cells to sustain a Treg phenotype, the present study investigated the effects of 1805 on the expression of Gal-1 and S100A8/A9 in APCs (monocytes). Human monocytes isolated from healthy individuals (n=4) were exposed to 1805 for 1 hour at levels of both Gal-1 and S100A8/A9 proteins.
(§8) The abundance of Gal-1 and S100A8/A9 protein at the cell surface were detected by tandem mass tag (TMT) quantitative proteomics.

The subject of experiment [13] is S100A8/A9. In words: TMT quantitative proteomics of monocyte cell surface, S100A8/A9. Format: cell-based. The following applies: human monocytes (n=4), 1 hour.
Excerpt: as §6, §7, §8

Experiment [14] deals with S100A9. Kind of experiment: Mass spec analysis of S100A9 post-translational modification in monocytes. Format: cell-based. The conditions noted are these: human monocytes.
Excerpt: as §6, §7

For experiment [15], the system named is CD69. In words: Surface CD154 and CD69 activation markers on T-lymphocytes from PBMCs. Format: cell-based, human. The following applies: 20 μg/mL, 20 hours at 37° C., PBMCs from four healthy donors, p=0.008. An excerpt: FIG. 11A-C provides bar graphs showing the effects of IRL201805 on the expression of surface CD154 and CD69 activation markers on T-lymphocytes from PBMCs: Tregs (FIG. 11A); effector T cells (Teffs; FIG. 11B); and CD8 T cells (FIG. 11C). Results are from PBMCs isolated from four healthy donors. Mean±SD shown. P=values represent paired sample t-test. NS=not significant.
The present study assessed the effects of 1805 on the expression of surface CD154 and CD69 activation markers on T-lymphocytes from PBMC of Tregs, Teffs, and CD8 T cells. PBMCs isolated from four healthy donors were cultured with or without 20 μg/mL IRL201805 for 20 hours at 37° C.

For experiment [16], the system named is STAT3 phosphorylation. Kind of experiment: STAT3 phosphorylation in human lymphocytes (previous unpublished data). Format: cell-based.

As to “IRL201805: a modified analog of GRP78 (BiP analog, SEQ ID NO:1) being developed for the treatment of autoimmune disease”, in experiment [1] (IV from Day 21, dose TBC), the “clinical signs of colitis (bodyweight loss, loose stools and/or diarrhea)” value is listed as “significant reduction in clinical signs of colitis”. Also, in experiment [1] (T cell transfer colitis, colon sections H&E, Day 49), the histopathology severity scores entry is listed as “significant reduction in severity scores”. The “clinical signs of colitis (bodyweight loss, loose stools and/or diarrhea)” value in experiment [2] (1 mg/kg IV Day −2, 0, 3, 6) is listed as “significant reduction in clinical signs of colitis”. Besides, the histopathology severity scores result in experiment [2] (1 mg/kg IV, colon sections H&E, Day 7) is “significant reduction in severity scores”. In [3], the “increase in double positive CD69+/CD39+ Tregs” value worked out at 20%. For the same substance, in experiment [4], the “p-STAT5 in subsets of immune cells by flow cytometry” value is listed as “increased p-STAT5”. Further, the “duration of sustained CD69 expression on CD154- cells” value in experiment [5] is “at least 72 h”. Further, in experiment [6], the “increase of JAK3 gene transcript level” value is “approximately 10 fold”. Besides, the “increase of SOCS3 gene transcript level” value in [7] is given as “approximately 10 fold”. In addition, the “transcript levels of STAT5A” value in experiment [8] was “did not affect”. Moreover, the “transcript levels of STAT5B” value in experiment [9] is reported as “did not affect”. Further, the “p-STAT5 levels by immunoblot” value in experiment [10] was “increased levels”. Moreover, the “p-STAT5 in subsets of immune cells” value in experiment [11] (PBMCs) is listed as “increased p-STAT5”. For the same substance, in experiment [11] (PBMCs, versus untreated), the “increase of the level of FoxP3 transcription” value is 3 fold. For the same substance, in experiment [11] (treated PBMCs), the “% CD4+ve” value amounted to 7.1%, the “% CD8+ve” value was determined as 3.2%, the “% FoxP3 + Tregs” value was determined as 0.9% and the “CD25hi/CD127lo Tregs” value was found to be 3.2. The “Gal-1 expression on the cell surface” value in experiment [12] is “not altered”. Besides, the “S100A8/A9 expression on the cell surface” value in experiment [13] is on record as “not altered”. The “increase of phosphorylation of S100A9” value in experiment [14] (1 hour) came to 58%. The “trimethylation post-translational modifications on threonine 113 on S100A9” value in experiment [14] (mass spec) is reported as “increased trimethylation”. Moreover, in experiment [15], the “increase of CD69 on the cell surface of Tregs” value is recorded as 2 fold.
binding immunoglobulin protein [BiP]: the STAT3 phosphorylation result in experiment [16] is recorded as “inhibit STAT3 phosphorylation”.
